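Values below derive from 48-hour exposures of cells grown in 96-well plates, with endpoints linearly interpolated between the two concentrations bracketing the appropriate inhibition level. TGI marks complete inhibition of growth.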
Experiments:
Experiment in all cases: growth of human tumour cells (NCI), 48 h
UACC-257 melanoma = system: UACC-257 melanoma
CAKI-1 renal = system: CAKI-1 renal
CCRF-CEM leukemia = system: CCRF-CEM leukemia
DLD-1 colon = system: DLD-1 colon
EKVX NSCLC = system: EKVX NSCLC
DMS 114 small cell lung = system: DMS 114 small cell lung
HCT-116 colon = system: HCT-116 colon
SK-MEL-5 melanoma = system: SK-MEL-5 melanoma
M14 melanoma = system: M14 melanoma
MOLT-4 leukemia = system: MOLT-4 leukemia
KM12 colon = system: KM12 colon
DMS 273 small cell lung = system: DMS 273 small cell lung
SF-268 CNS = system: SF-268 CNS
KM20L2 colon = system: KM20L2 colon
SF-295 CNS = system: SF-295 CNS
LXFL 529 NSCLC = system: LXFL 529 NSCLC
HT29 colon = system: HT29 colon
OVCAR-3 ovarian = system: OVCAR-3 ovarian
RPMI-8226 leukemia = system: RPMI-8226 leukemia
HCT-15 colon = system: HCT-15 colon
HOP-18 NSCLC = system: HOP-18 NSCLC
RXF-631 renal = system: RXF-631 renal
A549 NSCLC = system: A549 NSCLC
SNB-75 CNS = system: SNB-75 CNS
NCI-H460 lung = system: NCI-H460 lung
U251 CNS = system: U251 CNS
COLO 205 colon = system: COLO 205 colon
M19-MEL melanoma = system: M19-MEL melanoma
HCC-2998 colon = system: HCC-2998 colon
HOP-62 NSCLC = system: HOP-62 NSCLC
SK-OV-3 ovarian = system: SK-OV-3 ovarian
SNB-78 CNS = system: SNB-78 CNS
LOX IMVI melanoma = system: LOX IMVI melanoma
NCI-H522 lung = system: NCI-H522 lung
UACC-62 melanoma = system: UACC-62 melanoma
OVCAR-4 ovarian = system: OVCAR-4 ovarian
SK-MEL-2 melanoma = system: SK-MEL-2 melanoma
SNB-19 CNS = system: SNB-19 CNS
HL-60(TB) leukemia = system: HL-60(TB) leukemia
IGROV1 ovarian = system: IGROV1 ovarian
OVCAR-8 ovarian = system: OVCAR-8 ovarian
UO-31 renal = system: UO-31 renal
ACHN renal = system: ACHN renal
SK-MEL-28 melanoma = system: SK-MEL-28 melanoma
A498 renal = system: A498 renal
OVCAR-5 ovarian = system: OVCAR-5 ovarian
NCI-H226 lung = system: NCI-H226 lung
786-0 renal = system: 786-0 renal
MALME-3M melanoma = system: MALME-3M melanoma
SW-620 colon = system: SW-620 colon
K-562 leukemia = system: K-562 leukemia
SN12C renal = system: SN12C renal
NCI-H23 lung = system: NCI-H23 lung
TK-10 renal = system: TK-10 renal
XF 498 CNS = system: XF 498 CNS
RXF 393 renal = system: RXF 393 renal
HOP-92 NSCLC = system: HOP-92 NSCLC

## C1=CC=C2NCCOCCNC3=CC=CC=CC3=NCCOCCN=C2C=C1
UACC-257 melanoma
  TGI: 44.6 µM
CAKI-1 renal
  TGI: > 100 µM
CCRF-CEM leukemia
  TGI: > 100 µM
DLD-1 colon
  TGI: > 100 µM
EKVX NSCLC
  TGI: > 100 µM
DMS 114 small cell lung
  TGI: > 100 µM
HCT-116 colon
  TGI: > 100 µM
SK-MEL-5 melanoma
  TGI: > 100 µM
M14 melanoma
  TGI: 41.6 µM
MOLT-4 leukemia
  TGI: > 100 µM
KM12 colon
  TGI: > 100 µM
DMS 273 small cell lung
  TGI: > 100 µM
SF-268 CNS
  TGI: > 100 µM
KM20L2 colon
  TGI: 79.3 µM
SF-295 CNS
  TGI: > 100 µM
LXFL 529 NSCLC
  TGI: > 100 µM
HT29 colon
  TGI: 62.6 µM
OVCAR-3 ovarian
  TGI: > 100 µM
RPMI-8226 leukemia
  TGI: > 100 µM
HCT-15 colon
  TGI: > 100 µM
HOP-18 NSCLC
  TGI: > 100 µM
RXF-631 renal
  TGI: > 100 µM
A549 NSCLC
  TGI: > 100 µM
SNB-75 CNS
  TGI: > 100 µM
NCI-H460 lung
  TGI: > 100 µM
U251 CNS
  TGI: > 100 µM
COLO 205 colon
  TGI: > 100 µM
M19-MEL melanoma
  TGI: > 100 µM
HCC-2998 colon
  TGI: > 100 µM
HOP-62 NSCLC
  TGI: > 100 µM
SK-OV-3 ovarian
  TGI: > 100 µM
SNB-78 CNS
  TGI: > 100 µM
LOX IMVI melanoma
  TGI: > 100 µM
NCI-H522 lung
  TGI: > 100 µM
UACC-62 melanoma
  TGI: > 100 µM
OVCAR-4 ovarian
  TGI: > 100 µM
SK-MEL-2 melanoma
  TGI: > 100 µM
SNB-19 CNS
  TGI: > 100 µM
HL-60(TB) leukemia
  TGI: 70.5 µM
IGROV1 ovarian
  TGI: > 100 µM
OVCAR-8 ovarian
  TGI: > 100 µM
UO-31 renal
  TGI: > 100 µM
ACHN renal
  TGI: > 100 µM
SK-MEL-28 melanoma
  TGI: > 100 µM
A498 renal
  TGI: > 100 µM
OVCAR-5 ovarian
  TGI: > 100 µM
NCI-H226 lung
  TGI: > 100 µM
786-0 renal
  TGI: > 100 µM
MALME-3M melanoma
  TGI: 76 µM
SW-620 colon
  TGI: > 100 µM
K-562 leukemia
  TGI: > 100 µM
SN12C renal
  TGI: > 100 µM
NCI-H23 lung
  TGI: > 100 µM
TK-10 renal
  TGI: > 100 µM

## O=c1[nH]c(=O)n(C2OC3COC2C3O)cc1F (stereo not given)
UACC-257 melanoma
  TGI: > 100 µM
XF 498 CNS
  TGI: > 100 µM
RXF 393 renal
  TGI: > 100 µM
CAKI-1 renal
  TGI: > 100 µM
CCRF-CEM leukemia
  TGI: > 100 µM
DLD-1 colon
  TGI: > 100 µM
EKVX NSCLC
  TGI: > 100 µM
SK-MEL-5 melanoma
  TGI: > 100 µM
M14 melanoma
  TGI: > 100 µM
MOLT-4 leukemia
  TGI: > 100 µM
KM12 colon
  TGI: > 100 µM
DMS 273 small cell lung
  TGI: > 100 µM
SF-268 CNS
  TGI: > 100 µM
KM20L2 colon
  TGI: > 100 µM
SF-295 CNS
  TGI: > 100 µM
LXFL 529 NSCLC
  TGI: > 100 µM
HT29 colon
  TGI: > 100 µM
OVCAR-3 ovarian
  TGI: > 100 µM
RPMI-8226 leukemia
  TGI: > 100 µM
HCT-15 colon
  TGI: > 100 µM
HOP-18 NSCLC
  TGI: > 100 µM
RXF-631 renal
  TGI: > 100 µM
A549 NSCLC
  TGI: > 100 µM
SNB-75 CNS
  TGI: > 100 µM
NCI-H460 lung
  TGI: > 100 µM
U251 CNS
  TGI: > 100 µM
COLO 205 colon
  TGI: > 100 µM
HCC-2998 colon
  TGI: > 100 µM
HOP-62 NSCLC
  TGI: > 100 µM
SK-OV-3 ovarian
  TGI: > 100 µM
SNB-78 CNS
  TGI: > 100 µM
LOX IMVI melanoma
  TGI: > 100 µM
NCI-H522 lung
  TGI: > 100 µM
OVCAR-4 ovarian
  TGI: > 100 µM
SK-MEL-2 melanoma
  TGI: > 100 µM
HOP-92 NSCLC
  TGI: > 100 µM
SNB-19 CNS
  TGI: > 100 µM
HL-60(TB) leukemia
  TGI: > 100 µM
OVCAR-8 ovarian
  TGI: > 100 µM
UO-31 renal
  TGI: > 100 µM
ACHN renal
  TGI: > 100 µM
SK-MEL-28 melanoma
  TGI: > 100 µM
OVCAR-5 ovarian
  TGI: > 100 µM
NCI-H226 lung
  TGI: > 100 µM
786-0 renal
  TGI: > 100 µM
MALME-3M melanoma
  TGI: > 100 µM
SW-620 colon
  TGI: > 100 µM
K-562 leukemia
  TGI: > 100 µM
SN12C renal
  TGI: > 100 µM
NCI-H23 lung
  TGI: > 100 µM
TK-10 renal
  TGI: > 100 µM

From PubChem BioAssay (NCI)
